Values of other authors in US20180228146A1, “INSECTICIDAL COMPOSITION AND METHOD” (priority 2014, published 2018).
In brackets after ≈: the same amount, converted by molar mass.

## CCOP(=S)(OCC)Oc1nc(Cl)c(Cl)cc1Cl [chlorpyrifos, O,O-diethyl O-3,5,6-trichloro-2-pyridyl phosphorothioate]
25° C.
  Henry's law constant at 25° C.: 6.76 × 10^−1 Pa m^3 mol^−1
  Vapour pressure at 25° C.: 2.7 mPa
acetone, 25° C.
  Solubility Acetone (25° C.): 6500 g/kg
benzene, 25° C.
  Solubility Benzene (25° C.): 7900 g/kg
Carbon disulfide, 25° C.
  Solubility Carbon disulfide (25° C.): 5900 g/kg
chloroform, 25° C.
  Solubility Chloroform (25° C.): 6300 g/kg
Diethyl ether, 25° C.
  Solubility Diethyl ether (25° C.): 5100 g/kg
hydrolysis, with pH
  Stability: Rate of hydrolysis increases
iso-octanol, 25° C.
  Solubility Iso-octanol (25° C.): 790 g/kg
methanol, 25° C.
  Solubility Methanol (25° C.): 450 g/kg
Phosphate buffer, pH 7, 15° C.
  DT50 (phosphate buffer, pH 7, 15° C.): 100 d
water, 25° C.
  Solubility water (25° C.): 1.4 µg/mL (≈ 3.99 µM)
water, pH 8, 25° C.
  DT50 (water, pH 8, 25° C.): 1.55 d
xylene, 25° C.
  Solubility Xylene (25° C.): 5000 g/kg
